Results from patent publication US10820591B2, “Substituted sulfonyl amides for controlling animal pests” (Bayer Aktiengesellschaft, priority 2016, dated 2020).

These molecules were tested on Meloidogyne incognita (assay: Meloidogyne incognita test (sand, lettuce, gall formation)). Conditions: 20 ppm, after 14 days.
Type: in vivo
Experimental: Meloidogyne incognita Test [table] To produce a suitable active compound preparation, 1 part by weight of active compound is mixed with the stated amount of solvent and the concentrate is diluted to the desired concentration with water. Vessels are filled with sand, active compound solution, an egg/larvae suspension of the southern root-knot nematode (Meloidogyne incognita) and lettuce seeds. The lettuce seeds germinate and the plants develop. The galls develop on the roots. After 14 days, the nematicidal efficacy in % is determined by the formation of galls. 100% means that no galls were found; 0% means that the number of galls on the treated plants corresponds to the untreated control.
In the case of `COc1ccc(Cl)c(S(=O)(=O)NC(=O)c2cn(-c3cc(Cl)cc(Cl)c3)cn2)c1` [I-217], the “nematicidal efficacy (formation of galls)” value is reported as 90%.

Same assay, conditions: Meloidogyne incognita, 336 h, 20 ppm, after 14 days; read-out: nematicidal efficacy (formation of galls)
For `O=C(NS(=O)(=O)c1ccccc1)c1cn(-c2ccc(C(F)(F)F)cc2Cl)cn1` [I-194], the pest or weed control at 20 ppm was 100%.
With `O=C(NS(=O)(=O)c1ccccc1)c1cn(-c2cc(Cl)ccc2Cl)cn1` [I-195] the pest or weed control at 20 ppm was 100%.
Molecule `O=C(NS(=O)(=O)c1ccccc1Cl)c1cn(-c2ccc(Cl)c(Cl)c2)cn1` [I-196] has a pest or weed control at 20 ppm of 100%.
`O=C(NS(=O)(=O)c1c(Cl)cccc1Cl)c1cn(-c2ccc(C(F)(F)F)cc2Cl)cn1` [I-198] was tested, and the pest or weed control at 20 ppm was 100%.
`O=C(NS(=O)(=O)c1ccccc1)c1cn(-c2ccc(Cl)cc2Cl)cn1` [I-199] showed a pest or weed control at 20 ppm of 100%.
For `O=C(NS(=O)(=O)c1ccccc1Cl)c1cn(-c2ccc(Cl)cc2Cl)cn1` [I-200], the pest or weed control at 20 ppm was 100%.
Molecule `O=C(NS(=O)(=O)c1ccc(Cl)cc1)c1cn(-c2ccc(Cl)cc2Cl)cn1` [I-201] has a pest or weed control at 20 ppm of 80%.
In the case of `O=C(NS(=O)(=O)c1ccc(Cl)cc1)c1cn(-c2ccc(Cl)c(Cl)c2)cn1` [I-202], the pest or weed control at 20 ppm is reported as 70%.
Work on `O=C(NS(=O)(=O)c1ccccc1Cl)c1cn(-c2cc(Cl)ccc2Cl)cn1` [I-203] yielded a pest or weed control at 20 ppm of 100%.
In the case of `O=C(NS(=O)(=O)c1ccc(Cl)cc1)c1cn(-c2cc(Cl)ccc2Cl)cn1` [I-204], the pest or weed control at 20 ppm is reported as 100%.
For `O=C(NS(=O)(=O)c1c(Cl)cccc1Cl)c1cn(-c2cc(Cl)ccc2Cl)cn1` [I-205], the pest or weed control at 20 ppm was 100%.
In the case of `O=C(NS(=O)(=O)c1c(Cl)cccc1Cl)c1cn(-c2ccc(Cl)cc2Cl)cn1` [I-206], the pest or weed control at 20 ppm is reported as 100%.
Molecule `O=C(NS(=O)(=O)c1cccc(Cl)c1)c1cn(-c2ccc(C(F)(F)F)cc2Cl)cn1` [I-207] has a pest or weed control at 20 ppm of 100%.
`O=C(NS(=O)(=O)c1ccc(Cl)cc1Cl)c1cn(-c2ccc(Cl)cc2Cl)cn1` [I-208] was tested, and the pest or weed control at 20 ppm was 100%.
With `Cc1ccc(-n2cnc(C(=O)NS(=O)(=O)c3ccccc3)c2)cc1` [I-209] the pest or weed control at 20 ppm was 90%.
`Cc1ccc(-n2cnc(C(=O)NS(=O)(=O)c3ccccc3Cl)c2)cc1` [I-210] gave a pest or weed control at 20 ppm of 100%.
With `COc1ccc(-n2cnc(C(=O)NS(=O)(=O)c3ccccc3)c2)cc1` [I-211] the pest or weed control at 20 ppm was 100%.
Molecule `Cc1ccc(-n2cnc(C(=O)NS(=O)(=O)c3c(Cl)cccc3Cl)c2)cc1` [I-212] has a pest or weed control at 20 ppm of 90%.
Work on `COc1ccc(Cl)c(S(=O)(=O)NC(=O)c2cn(-c3ccc(C)cc3)cn2)c1` [I-213] yielded a pest or weed control at 20 ppm of 90%.
In the case of `O=C(NS(=O)(=O)c1ccccc1Cl)c1cn(-c2ccc(F)cc2F)cn1` [I-215], the pest or weed control at 20 ppm is reported as 100%.
Molecule `COc1ccc(Cl)c(S(=O)(=O)NC(=O)c2cn(-c3ccc(Cl)cc3Cl)cn2)c1` [I-216] has a pest or weed control at 20 ppm of 90%.
Work on `COc1ccc(Cl)c(S(=O)(=O)NC(=O)c2cn(-c3ccc(Cl)c(Cl)c3)cn2)c1` [I-218] yielded a pest or weed control at 20 ppm of 70%.
`COc1ccc(Cl)c(S(=O)(=O)NC(=O)c2cn(-c3ccc(C(F)(F)F)cc3Cl)cn2)c1` [I-219] showed a pest or weed control at 20 ppm of 90%.
With `O=C(NS(=O)(=O)c1ccccc1)c1cn(-c2ccccc2F)cn1` [I-221] the pest or weed control at 20 ppm was 90%.
With `O=C(NS(=O)(=O)c1c(F)cccc1F)c1cn(-c2cc(Cl)cc(Cl)c2)cn1` [I-222] the pest or weed control at 20 ppm was 100%.
In the case of `O=C(NS(=O)(=O)c1c(F)cccc1F)c1cn(-c2ccc(C(F)(F)F)cc2Cl)cn1` [I-223], the pest or weed control at 20 ppm is reported as 100%.
In the case of `O=C(NS(=O)(=O)c1c(F)cccc1F)c1cn(-c2ccccc2OC(F)(F)F)cn1` [I-224], the pest or weed control at 20 ppm is reported as 90%.
`O=C(NS(=O)(=O)c1ccccc1Cl)c1cn(-c2ccccc2OC(F)(F)F)cn1` [I-225] gave a pest or weed control at 20 ppm of 100%.
`O=C(NS(=O)(=O)c1c(Cl)cccc1Cl)c1cn(-c2ccccc2OC(F)(F)F)cn1` [I-226] gave a pest or weed control at 20 ppm of 100%.
`COc1ccc(Cl)c(S(=O)(=O)NC(=O)c2cn(-c3ccccc3OC(F)(F)F)cn2)c1` [I-227] showed a pest or weed control at 20 ppm of 100%.
Molecule `COc1ccc(Cl)c(S(=O)(=O)NC(=O)c2cn(-c3ccccc3F)cn2)c1` [I-228] has a pest or weed control at 20 ppm of 90%.
